Laboratory results as given in US4775677A, “[3-substituted-2-(substituted imino)-4-oxo-5-thiazolidinylidene]acetic acids having activity as leukotriene antagonists” (Warner-Lambert Company, priority 1987, dated 1988).

biological target: leukotriene receptor; experiment: leukotriene receptor binding assay (RBL-1); conditions: Bruns et al
Excerpt: The usefulness of the compounds of Formula I is particularly directed to the treatment of humans. By virtue of the activity of the compounds having the Formula I of the present invention as antagonists of Slow Reacting Substance of Anaphylaxis (leukotrienes C, D, and E) are useful in the treatment of allergic rhinitis, asthma, bronchitis, and urticaria. They are also particularly useful for the treatment of cardiovascular diseases mediated by leukotrienes, C, D, and E. See B. Samuelsson, "Leukotrienes: Mediators of Immediate Hypersensitivity Reactions and Inflammation,"Science, Vol. 220, p. 568 (1983); P. J. Piper, "Leukotrienes," Trends in Pharmaceutic Sciences, pp. 75-77 (1983; and J. L. Romson, et al, "Reduction of the Extent of Ischemic Myocardial Injury by Neutrophil Depletion in the Dog," Circulation, Vol. 67, p. 1016 (1983). The activity of the compounds I of the present invention is determined in a leukotriene receptor binding assay (RBL-1) described by R. F. Bruns, W. J. Thomsen, and T. A. Pugsley in Life Sciences, 33, p. 645 (1983).
When tested by the procedures in a leukotriene receptor binding assay (RBL-1) as described by Bruns et al cited above, the compounds of the Formula I as defined in the present invention have the indicated activity as shown in Table 5 as IC50 values expressed in μMs (micromolar).

SMILES | IC50
CCCCCCCCN=C1SC(=CC(=O)O)C(=O)N1CCCCCCCC [Example 1, [3-Octyl-2-(octylimino)-4-oxo-5-thiazolidinylidene]acetic acid] | 19 µM
CCN=C1SC(=CC(=O)O)C(=O)N1CC [Example 2, [3-Ethyl-2-(ethylimino)-4-oxo-5-thiazolidinylidene]acetic acid] | > 100 µM
COc1cc(N=C2SC(=CC(=O)O)C(=O)N2c2cc(OC)c(OC)c(OC)c2)cc(OC)c1OC [Example 6, [4-Oxo-3-(3,4,5-trimethoxyphenyl)-2-[(3,4,5-trimethoxyphenyl)imino]-5-thiazolidinylidene]acetic acid] | > 100 µM
COc1ccc(N=C2SC(=CC(=O)O)C(=O)N2c2ccc(OC)cc2)cc1 [Example 7, [4-Oxo-3-(4-methoxyphenyl)-2-[(4-methoxyphenyl)imino]-5-thiazolidinylidene]acetic acid] | > 100 µM
CCCN=C1SC(=CC(=O)O)C(=O)N1CCC [Example 8, [4-Oxo-3-propyl-2-(propylimino)-5-thiazolidinylidene]acetic acid] | > 100 µM
COc1ccccc1N=C1SC(=CC(=O)O)C(=O)N1c1ccccc1OC [Example 10, [3-(2-Methoxyphenyl)-2-[(2-methoxyphenyl)imino]-4-oxo-5-thiazolidinylidene]acetic acid] | > 100 µM
CN1C(=O)C(=CC(=O)O)SC1=Nc1ccc(Cl)c(Cl)c1 [Example 12, [2-[(3,4-dichlorophenyl)imino]-3-methyl-4-oxo-5-thiazolidinylidene]acetic acid] | > 100 µM
O=C(O)C=C1SC(=NCCc2ccccc2)N(CCc2ccccc2)C1=O [Example 15, [4-Oxo-3-(2-phenylethyl)-2-[(2-phenylethyl)imino]-5-thiazolidinylidene]acetic acid] | > 100 µM
CCCCCCCCCCCN=C1SC(=CC(=O)O)C(=O)N1CCCCCCCCCCC [Example 16, [3-Undecyl-2-(undecylimino)-4-oxo-5-thiazolidinylidene]acetic acid] | > 100 µM
CCCCCCCCCCN=C1SC(=CC(=O)O)C(=O)N1CCCCCCCCCC [Example 19, [3-Decyl-2-(decylimino)-4-oxo-5-thiazolidinylidene]acetic acid] | > 100 µM
CCCCCCCCCCCCN=C1SC(=CC(=O)O)C(=O)N1CCCCCCCCCCCC [Example 20, [3-Dodecyl-2-(dodecylimino)-4-oxo-5-thiazolidinylidene]acetic acid] | > 100 µM
O=C(O)C=C1SC(=Nc2ccc(Cl)c(Cl)c2)N(c2ccc(Cl)c(Cl)c2)C1=O [Example 21, [4-oxo-3-(3,4-dichlorophenyl)-2-[(3,4-dichlorophenyl)imino]-5-thiazolidinylidene]acetic acid] | 15.6 µM
O=C(O)C=C1SC(=Nc2ccc(Br)c(Br)c2)N(c2ccc(Br)c(Br)c2)C1=O [Example 22, [4-Oxo-3-(3,4-dibromophenyl)-2-[(3,4-dibromophenyl)imino]-5-thiazolidinylidene]acetic acid] | 18.9 µM
O=C(O)C=C1SC(=Nc2cc(Cl)c(Cl)c(Cl)c2)N(c2cc(Cl)c(Cl)c(Cl)c2)C1=O [Example 23] | 13.1 µM
COc1cccc(N=C2SC(=CC(=O)O)C(=O)N2c2cccc(OC)c2)c1 [Example 24, [3-(3-Methoxyphenyl)-2-[(3-methoxyphenyl)imino]-4-oxo-5-thiazolidinylidene]acetic acid] | > 100 µM
O=C(O)C=C1SC(=NC2CCCCC2)N(C2CCCCC2)C1=O [Example 25, [3-Cyclohexyl-2-(cyclohexylimino)-4-oxo-5-thiazolidinylidene]acetic acid] | 62.5 µM

More lines, now with the values ahead:

IC50 | SMILES
15.4 µM | CCCCCN=C1SC(=CC(=O)O)C(=O)N1CCCCC [Example 3, [3-Pentyl-2-(pentylimino)-4-oxo-5-thiazolidinylidene]acetic acid]
24.5 µM | CCCCCCN=C1SC(=CC(=O)O)C(=O)N1CCCCCC [Example 4, [3-Hexyl-2-(hexylimino)-4-oxo-5-thiazolidinylidene]acetic acid]
> 100 µM | CCCCN=C1SC(=CC(=O)O)C(=O)N1CCCC [Example 9, [3-Butyl-2-(butylimino)-4-oxo-5-thiazolidinylidene]acetic acid]
12.2 µM | CCCCCCN1C(=O)C(=CC(=O)O)SC1=Nc1ccc(Cl)c(Cl)c1 [Example 11, [2-[(3,4-dichlorophenyl)imino]-3-hexyl-4-oxo-5-thiazolidinylidene]acetic acid]
39.2 µM | CCCCCCN1C(=O)C(=CC(=O)O)SC1=Nc1ccccc1 [Example 13, [3-Hexyl-4-oxo-2-(phenylimino)-5-thiazolidinylidene]acetic acid]
10.3 µM | CCCCCCN1C(=O)C(=CC(=O)O)SC1=Nc1cccc2ccccc12 [Example 17, [3-Hexyl-2-[(1-naphthalenyl)imino]-4-oxo-5-thiazolidinylidene]acetic acid]
12.7 µM | CCCCCCCN=C1SC(=CC(=O)O)C(=O)N1CCCCCCC [Example 18, [3-Heptyl-2-(heptylimino)-4-oxo-5-thiazolidinylidene]acetic acid]
